Pest or weed control data for eight molecules are collected here from patent US20110086759A1, “CHEMICAL COMPOUNDS” (SYNGENTA CROP PROTECTION, INC., priority 2007, published 2011).

SMILES strings stand for the structures.

Assay type in all cases: in vivo
The test system of test [1] is Setaria faberi (SETFA). Kind of test: Post-emergence biological efficacy, glasshouse pot test. To be noted: 312 h, Rate 1,000 g/ha, post-emergence spray, evaluated after 13 days (100=total damage to plant; 0=no damage to plant), read-out: Percentage damage caused to weed species, post-emergence, SETFA. Put shortly:
(§1)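 Scored 13 days after spraying on a 0 (no damage) to 100 (total damage) scale. Treatment was a post-emergence spray at 1000 or 250 g/ha, from acetone/water 50:50 plus 0.5% Tween 20, onto 8-day-old plants in soil pots. Growth at 24/16° C, 14 h photoperiod, 65% humidity, watered twice daily.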

The test system of test [2] is Solanum nigrum (SOLNI). The test is described as above. As to conditions: 312 h, Rate 1,000 g/ha, post-emergence spray, evaluated after 13 days (100=total damage to plant; 0=no damage to plant), read-out: Percentage damage caused to weed species, post-emergence, SOLNI. Put shortly:
as §1

In test [3] the test system is Ipomea hederaceae (IPOHE). Described as above. As to conditions: Ipomoea hederacea, 312 h; Rate 1,000 g/ha; post-emergence spray; evaluated after 13 days (100=total damage to plant; 0=no damage to plant); read-out: Percentage damage caused to weed species, post-emergence, IPOHE. Put shortly: as §1
The subject of test [4] is Echinochloa crus-galli (ECHCG). The test is described as above. To be noted: 312 h, Rate 1,000 g/ha, post-emergence spray, evaluated after 13 days (100=total damage to plant; 0=no damage to plant), read-out: Percentage damage caused to weed species, post-emergence, ECHCG. Put shortly:
as §1

Test [5] relates to Alopecurus myosuroides (ALOMY). The description is as above. As to conditions: 312 h, Rate 1,000 g/ha, post-emergence spray, evaluated after 13 days (100=total damage to plant; 0=no damage to plant), read-out: Percentage damage caused to weed species, post-emergence, ALOMY. In outline: as §1
Test [6] has as its system Amaranthus retoflexus (AMARE). Described as above. To be noted: Amaranthus retroflexus, 312 h; Rate 1,000 g/ha; post-emergence spray; evaluated after 13 days (100=total damage to plant; 0=no damage to plant); read-out: Percentage damage caused to weed species, post-emergence, AMARE. Put shortly: as §1
Test [7] has as its system Setaria faberi (SETFA). The test can be described thus: Pre-emergence biological efficacy, glasshouse pot test. As to conditions: 312 h, pre-emergence, rate 1,000 g/ha, evaluated after 13 days (100=total damage to plant; 0=no damage), read-out: Percentage damage caused to weed species, SETFA. In outline:
(§2)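 Scores on a 0–100 damage scale were taken 13 days after spraying. Application rate 1000 or 250 g/ha, one day after sowing, in acetone/water-based aqueous spray containing 0.5% Tween 20.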

Test [8] has as its system Solanum nigrum (SOLNI). Described as above. As to conditions: 312 h, pre-emergence, rate 1,000 g/ha, evaluated after 13 days (100=total damage to plant; 0=no damage), read-out: Percentage damage caused to weed species, SOLNI. In outline: as §2
Test [9] deals with Ipomea hederaceae (IPOHE). The test is described as above. As to conditions: Ipomoea hederacea, 312 h; pre-emergence, rate 1,000 g/ha, evaluated after 13 days (100=total damage to plant; 0=no damage); read-out: Percentage damage caused to weed species, IPOHE. Put shortly: as §2
Test [10] deals with Echinochloa crus-galli (ECHCG). Described as above. As to conditions: 312 h, pre-emergence, rate 1,000 g/ha, evaluated after 13 days (100=total damage to plant; 0=no damage), read-out: Percentage damage caused to weed species, ECHCG. Put shortly: as §2
Test [11] concerns Alopecurus myosuroides (ALOMY). The description is as above. To be noted: 312 h, pre-emergence, rate 1,000 g/ha, evaluated after 13 days (100=total damage to plant; 0=no damage), read-out: Percentage damage caused to weed species, ALOMY. In outline:
as §2

Test [12] deals with Amaranthus retoflexus (AMARE). The test is described as above. To be noted: Amaranthus retroflexus, 312 h; pre-emergence, rate 1,000 g/ha, evaluated after 13 days (100=total damage to plant; 0=no damage); read-out: Percentage damage caused to weed species, AMARE. Put shortly: as §2

For `COC(=O)c1nc(C2CC2)nc(N(C)Cc2ccc(C(F)(F)F)cc2)c1Cl` [Compound 5-77, 5-Chloro-2-cyclopropyl-6-methoxycarbonyl-4-[N-methyl-N-(4-trifluoromethyl-phenyl)methyl-amino]pyrimidine], the pest or weed control at 1000 g/ha in test [1] turned out to be 50%; in test [2], 100%; in test [3], 100%; in [4], 40%; in test [5] it was 20%; in test [6], 100%. The pest or weed control at 1000 g/ha was 0% in test [7]; 20% in test [8]; 20% in test [9]; 0% in test [10]; 0% in [11]; 90% in test [12].
On to `COC(=O)c1nc(C2CC2)nc(N(C)Cc2cccc(OC)c2)c1Cl` [Compound 5-79, 5-Chloro-2-cyclopropyl-6-methoxycarbonyl-4-[N-(3-methoxy-phenylmethyl)-N-methyl-amino]-pyrimidine], for which the pest or weed control at 1000 g/ha is 30% in test [1]; 80% in test [2]; 70% in [3]; 0% in test [4]; 0% in test [5]; 100% in test [6]. The pest or weed control at 1000 g/ha in [7] was 0%; in [8], 40%; in test [9], 50%; in [10] it was 0%; in test [11], 0%; in [12], 70%.
For `COC(=O)c1nc(C2CC2)nc(N(C)Cc2ccc(OC)cc2)c1Cl` [Compound 5-80, 5-Chloro-2-cyclopropyl-6-methoxycarbonyl-4-[N-(4-methoxy-phenyl)methyl-N-methyl-amino]-pyrimidine], the pest or weed control at 1000 g/ha stood at 80% in test [1]; 100% in [2]; 100% in test [3]; 50% in test [4]; 20% in [5]; 100% in [6]. Also, the pest or weed control at 1000 g/ha in test [7] came to 20%; in test [8] it was 30%; in [9] it was 60%; in [10] it was 0%; in test [11] it was 0%; in [12], 100%.
With `COC(=O)c1nc(C2CC2)nc(N(C)Cc2ccc(N)cc2)c1Cl` [Compound 5-86, 4-[N-(4-aminophenylmethyl)-N-methyl-amino]-5-chloro-2-cyclopropyl-6-methoxycarbonyl-pyrimidine], the pest or weed control at 1000 g/ha turned out to be 90% in test [1]; 90% in test [2]; 100% in test [3]; 70% in test [4]; 40% in [5]; 100% in test [6]. Also, the pest or weed control at 1000 g/ha in [7] came out at 30%; in test [8], 100%; in [9], 100%; in test [10], 50%; in [11], 40%; in [12], 100%.
On to `COC(=O)c1nc(C2CC2)nc(N(C)Cc2ccccc2[N+](=O)[O-])c1Cl` [Compound 5-90, 5-Chloro-2-cyclopropyl-6-methoxycarbonyl-4-[N-methyl-N-(2-nitrophenylmethyl)-amino]pyrimidine], for which the pest or weed control at 1000 g/ha in [1] stood at 90%; in test [2], 90%; in [3], 100%; in [4], 70%; in test [5] it was 50%; in test [6], 100%. Besides, the pest or weed control at 1000 g/ha turned out to be 30% in test [7]; 90% in [8]; 90% in test [9]; 30% in test [10]; 20% in test [11]; 100% in [12].
Turning to `COC(=O)c1nc(C2CC2)nc(N(C)Cc2cccc([N+](=O)[O-])c2)c1Cl` [Compound 5-91, 5-Chloro-2-cyclopropyl-6-methoxycarbonyl-4-[N-methyl-N-(3-nitrophenylmethyl)-amino]pyrimidine], the pest or weed control at 1000 g/ha in test [1] turned out to be 40%; in test [2], 80%; in test [3], 80%; in test [4] it was 30%; in test [5] it was 20%; in [6], 100%. Also, the pest or weed control at 1000 g/ha in [7] came out at 10%; in test [8] it was 60%; in test [9], 30%; in test [10] it was 0%; in test [11], 10%; in test [12], 70%.
With `COC(=O)c1nc(C2CC2)nc(N(C)Cc2ccc([N+](=O)[O-])cc2)c1Cl` [Compound 5-92, 5-Chloro-2-cyclopropyl-6-methoxycarbonyl-4-[N-methyl-N-(4-nitrophenylmethyl)-amino]-pyrimidine], the pest or weed control at 1000 g/ha amounted to 60% in test [1]; 80% in [2]; 100% in test [3]; 40% in test [4]; 50% in [5]; 100% in test [6]. The pest or weed control at 1000 g/ha was 10% in test [7]; 60% in [8]; 70% in test [9]; 10% in test [10]; 20% in [11]; 90% in test [12].
Take `COC(=O)c1nc(C2CC2)nc(N(C)Cc2c(Cl)cccc2Cl)c1Cl` [Compound 5-104, 5-Chloro-2-cyclopropyl-4-[N-(2,6-dichlorophenyl-methyl)-N-methyl-amino]-6-methoxy-carbonylpyrimidine]: the pest or weed control at 1000 g/ha in test [1] came out at 20%; in [2], 60%; in test [3] it was 70%; in [4], 0%; in test [5], 0%; in test [6] it was 60%. Besides, the pest or weed control at 1000 g/ha in test [7] came out at 0%; in test [8], 10%; in test [9], 40%; in test [10] it was 0%; in test [11], 0%; in [12] it was 30%.
